Data as given in US20240208992A1, “MACROCYCLES AS CFTR MODULATORS” (Idorsia Pharmaceuticals Ltd, priority 2021, published 2024).

Molecular target: human F508del-CFTR (Homo sapiens, UniProt P13569, DEL508-508)
Test: F508del-CFTR cell surface expression (corrector activity), DiscoveRx ß-galactosidase complementation chemiluminescence assay in recombinant U2OS cell line;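 note: U2OS cells co-expressing ProLink-tagged F508del-CFTR and a membrane-anchored enzyme acceptor, where more surface CFTR restores β-galactosidase activity measured by chemiluminescence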
Conditions: for EC50: EC50, F508del-CFTR cell surface expression, U2OS cells, 16h compound incubation, geomean values; for Emax: U2OS, in relation to Emax of corrector lumacaftor (=100%), arithmetic mean values

Sequence of human F508del-CFTR (P13569 with tags, fused parts or gaps DEL508-508): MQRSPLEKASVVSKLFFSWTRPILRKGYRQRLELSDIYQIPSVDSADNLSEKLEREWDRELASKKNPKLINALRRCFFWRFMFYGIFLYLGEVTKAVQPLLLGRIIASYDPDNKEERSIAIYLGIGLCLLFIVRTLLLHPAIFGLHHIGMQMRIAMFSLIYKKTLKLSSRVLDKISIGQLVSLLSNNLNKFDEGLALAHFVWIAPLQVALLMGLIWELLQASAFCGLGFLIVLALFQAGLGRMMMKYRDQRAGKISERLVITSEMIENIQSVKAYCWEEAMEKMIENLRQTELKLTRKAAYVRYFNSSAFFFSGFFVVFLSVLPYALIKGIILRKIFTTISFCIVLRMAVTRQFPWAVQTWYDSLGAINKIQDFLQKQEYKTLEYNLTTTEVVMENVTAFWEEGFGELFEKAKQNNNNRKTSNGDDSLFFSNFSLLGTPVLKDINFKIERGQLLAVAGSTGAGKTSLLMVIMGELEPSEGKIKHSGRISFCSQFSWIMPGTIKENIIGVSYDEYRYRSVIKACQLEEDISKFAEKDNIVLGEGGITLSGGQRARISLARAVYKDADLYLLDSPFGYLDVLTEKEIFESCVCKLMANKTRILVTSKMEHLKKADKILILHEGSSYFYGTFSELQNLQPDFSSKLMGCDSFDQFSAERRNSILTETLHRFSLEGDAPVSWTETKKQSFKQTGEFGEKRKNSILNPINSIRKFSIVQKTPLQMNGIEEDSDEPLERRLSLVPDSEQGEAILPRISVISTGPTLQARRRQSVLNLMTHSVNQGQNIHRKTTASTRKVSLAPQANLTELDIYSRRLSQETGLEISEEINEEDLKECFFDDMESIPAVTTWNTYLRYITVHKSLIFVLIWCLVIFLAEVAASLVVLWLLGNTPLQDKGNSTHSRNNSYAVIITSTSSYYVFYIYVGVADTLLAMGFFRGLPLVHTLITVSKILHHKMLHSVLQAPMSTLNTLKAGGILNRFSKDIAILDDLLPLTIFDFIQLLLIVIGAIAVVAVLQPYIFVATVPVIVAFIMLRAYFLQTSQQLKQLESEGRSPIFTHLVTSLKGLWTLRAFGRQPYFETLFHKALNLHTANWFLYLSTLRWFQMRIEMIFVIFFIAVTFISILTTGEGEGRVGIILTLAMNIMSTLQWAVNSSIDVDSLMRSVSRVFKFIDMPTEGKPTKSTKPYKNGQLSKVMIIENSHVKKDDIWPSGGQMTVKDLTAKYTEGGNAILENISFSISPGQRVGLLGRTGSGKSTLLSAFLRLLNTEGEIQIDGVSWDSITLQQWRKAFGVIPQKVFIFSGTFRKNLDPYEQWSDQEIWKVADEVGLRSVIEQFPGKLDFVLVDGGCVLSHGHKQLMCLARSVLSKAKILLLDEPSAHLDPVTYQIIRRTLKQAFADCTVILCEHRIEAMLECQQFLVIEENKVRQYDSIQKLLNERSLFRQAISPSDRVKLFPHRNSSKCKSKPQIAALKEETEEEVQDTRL

Structure (SMILES)	EC50	Emax
COc1cccc(CCNC(=O)[C@@H]2CC(=O)N(C)[C@@H](CC(C)C)C(=O)N3CCN(S(=O)(=O)c4cc(OC)ccc4F)C[C@@H]3C(=O)N[C@H](Cc3ccccc3)COc3ccc4ccccc4c3C(=O)N2)c1 [Example 740, (4aR,7R,18S,22S)-7-benzyl-3-((2-fluoro-5-methoxyphenyl)sulfonyl)-22-isobutyl-N-(3-methoxyphenethyl)-21-methyl-5,16,20,23-tetraoxo-2,3,4,4a,5,6,7,8,16,17,18,19,20,21,22,23-hexadecahydro-1H-naphtho[1,2-p]pyrazino[2,1-f][1]oxa[4,7,10,14]tetraazacycloheptadecine-18-carboxamide]	111 nM	280%
COc1cccc(CCNC(=O)[C@@H]2CC(=O)N(C)[C@@H](CC(C)C)C(=O)N3CCN(S(=O)(=O)c4ccc5c(c4)OCCN5C)C[C@@H]3C(=O)N[C@H](Cc3ccccc3)COc3ccc4ccccc4c3C(=O)N2)c1 [Example 741, (4aR,7R,18S,22S)-7-benzyl-22-isobutyl-N-(3-methoxyphenethyl)-21-methyl-3-((4-methyl-3,4-dihydro-2H-benzo[b][1,4]oxazin-7-yl)sulfonyl)-5,16,20,23-tetraoxo-2,3,4,4a,5,6,7,8,16,17,18,19,20,21,22,23-hexadecahydro-1H-naphtho[1,2-p]pyrazino[2,1-f][1]oxa[4,7,10,14]tetraazacycloheptadecine-18-carboxamide]	116 nM	294%
COc1cccc(CCNC(=O)[C@@H]2CC(=O)N(C)[C@@H](CC(C)C)C(=O)N3CCN(S(=O)(=O)c4cccnc4)C[C@@H]3C(=O)N[C@H](Cc3ccccc3)COc3ccc4ccccc4c3C(=O)N2)c1 [Example 742, (4aR,7R,18S,22S)-7-benzyl-22-isobutyl-N-(3-methoxyphenethyl)-21-methyl-5,16,20,23-tetraoxo-3-(pyridin-3-ylsulfonyl)-2,3,4,4a,5,6,7,8,16,17,18,19,20,21,22,23-hexadecahydro-1H-naphtho[1,2-p]pyrazino[2,1-f][1]oxa[4,7,10,14]tetraazacycloheptadecine-18-carboxamide]	214 nM	246%
COCCCS(=O)(=O)N1CCN2C(=O)[C@H](CC(C)C)N(C)C(=O)C[C@@H](C(=O)NCCc3cccc(OC)c3)NC(=O)c3c(ccc4ccccc34)OC[C@@H](Cc3ccccc3)NC(=O)[C@H]2C1 [Example 743, (4aR,7R,18S,22S)-7-benzyl-22-isobutyl-N-(3-methoxyphenethyl)-3-((3-methoxypropyl)sulfonyl)-21-methyl-5,16,20,23-tetraoxo-2,3,4,4a,5,6,7,8,16,17,18,19,20,21,22,23-hexadecahydro-1H-naphtho[1,2-p]pyrazino[2,1-f][1]oxa[4,7,10,14]tetraazacycloheptadecine-18-carboxamide]	207 nM	217%
COc1cccc(CCNC(=O)[C@@H]2CC(=O)N(C)[C@@H](CC(C)C)C(=O)N3CCN(S(=O)(=O)c4cncc(OC)c4)C[C@@H]3C(=O)N[C@H](Cc3ccccc3)COc3ccc4ccccc4c3C(=O)N2)c1 [Example 744, (4aR,7R,18S,22S)-7-benzyl-22-isobutyl-N-(3-methoxyphenethyl)-3-((5-methoxypyridin-3-yl)sulfonyl)-21-methyl-5,16,20,23-tetraoxo-2,3,4,4a,5,6,7,8,16,17,18,19,20,21,22,23-hexadecahydro-1H-naphtho[1,2-p]pyrazino[2,1-f][1]oxa[4,7,10,14]tetraazacycloheptadecine-18-carboxamide]	178 nM	239%
COc1cccc(CCNC(=O)[C@@H]2CC(=O)N(C)[C@@H](CC(C)C)C(=O)N3CCN(S(=O)(=O)CCN4CCOCC4)C[C@@H]3C(=O)N[C@H](Cc3ccccc3)COc3ccc4ccccc4c3C(=O)N2)c1 [Example 745, (4aR,7R,18S,22S)-7-benzyl-22-isobutyl-N-(3-methoxyphenethyl)-21-methyl-3-((2-morpholinoethyl)sulfonyl)-5,16,20,23-tetraoxo-2,3,4,4a,5,6,7,8,16,17,18,19,20,21,22,23-hexadecahydro-1H-naphtho[1,2-p]pyrazino[2,1-f][1]oxa[4,7,10,14]tetraazacycloheptadecine-18-carboxamide]	693 nM	206%
COc1cccc(CCNC(=O)[C@@H]2CC(=O)N(C)[C@@H](CC(C)C)C(=O)N3CCN(S(=O)(=O)CC4CCOCC4)C[C@@H]3C(=O)N[C@H](Cc3ccccc3)COc3ccc4ccccc4c3C(=O)N2)c1 [Example 746, (4aR,7R,18S,22S)-7-benzyl-22-isobutyl-N-(3-methoxyphenethyl)-21-methyl-5,16,20,23-tetraoxo-3-(((tetrahydro-2H-pyran-4-yl)methyl)sulfonyl)-2,3,4,4a,5,6,7,8,16,17,18,19,20,21,22,23-hexadecahydro-1H-naphtho[1,2-p]pyrazino[2,1-f][1]oxa[4,7,10,14]tetraazacycloheptadecine-18-carboxamide]	211 nM	213%
COc1cccc(CCNC(=O)[C@@H]2CC(=O)N(C)[C@@H](CC(C)C)C(=O)N3CCN(S(=O)(=O)c4ccccn4)C[C@@H]3C(=O)N[C@H](Cc3ccccc3)COc3ccc4ccccc4c3C(=O)N2)c1 [Example 747, (4aR,7R,18S,22S)-7-benzyl-22-isobutyl-N-(3-methoxyphenethyl)-21-methyl-5,16,20,23-tetraoxo-3-(pyridin-2-ylsulfonyl)-2,3,4,4a,5,6,7,8,16,17,18,19,20,21,22,23-hexadecahydro-1H-naphtho[1,2-p]pyrazino[2,1-f][1]oxa[4,7,10,14]tetraazacycloheptadecine-18-carboxamide]	234 nM	213%
Cc1cc(CCNC(=O)[C@@H]2CC(=O)N(C)[C@@H](CC(C)C)C(=O)N3CCN(S(=O)(=O)c4ccc5c(c4)OCCN5C)C[C@@H]3C(=O)N[C@H](Cc3ccccc3)COc3cnc4ccccc4c3C(=O)N2)on1 [Example 748, (9S,13S,19aR,22R)-22-benzyl-13-isobutyl-12-methyl-18-((4-methyl-3,4-dihydro-2H-benzo[b][1,4]oxazin-7-yl)sulfonyl)-N-(2-(3-methylisoxazol-5-yl)ethyl)-7,11,14,20-tetraoxo-7,8,9,10,11,12,13,14,17,18,19,19a,20,21,22,23-hexadecahydro-16H-pyrazino[2′,11:6,7][1]oxa[4,7,10,14]tetraazacycloheptadecino[17,16-c]quinoline-9-carboxamide]	529 nM	295%
Cc1cc(CCNC(=O)[C@@H]2CC(=O)N(C)[C@@H](CC(C)C)C(=O)N3CCN(S(=O)(=O)c4cccc(OC(F)(F)F)c4)C[C@@H]3C(=O)N[C@H](Cc3ccccc3)COc3cnc4ccccc4c3C(=O)N2)on1 [Example 749, (9S,13S,19aR,22R)-22-benzyl-13-isobutyl-12-methyl-N-(2-(3-methylisoxazol-5-yl)ethyl)-7,11,14,20-tetraoxo-18-((3-(trifluoromethoxy)phenyl)sulfonyl)-7,8,9,10,11,12,13,14,17,18,19,19a,20,21,22,23-hexadecahydro-16H-pyrazino[2′,1′:6,7][1]oxa[4,7,10,14]tetraazacycloheptadecino[17,16-c]quinoline-9-carboxamide]	153 nM	301%
COc1cccc(CCNC(=O)[C@@H]2CC(=O)N(C)[C@@H](CC(C)C)C(=O)N3CCN(C(C)=O)C[C@@H]3C(=O)N[C@H](Cc3ccccc3)COc3ccc4ccccc4c3C(=O)N2)c1 [Example 750, (4aR,7R,18S,22S)-3-Acetyl-7-benzyl-22-isobutyl-N-(3-methoxyphenethyl)-21-methyl-5,16,20,23-tetraoxo-2,3,4,4a,5,6,7,8,16,17,18,19,20,21,22,23-hexadecahydro-1H-naphtho[1,2-p]pyrazino[2,1-f][1]oxa[4,7,10,14]tetraazacycloheptadecine-18-carboxamide]	784 nM	267%
COc1cccc(CCNC(=O)[C@@H]2CC(=O)N(C)[C@@H](CC(C)C)C(=O)N3CCN(C(=O)CC(C)C)C[C@@H]3C(=O)N[C@H](Cc3ccccc3)COc3ccc4ccccc4c3C(=O)N2)c1 [Example 751, (4aR,7R,18S,22S)-7-benzyl-22-isobutyl-N-(3-methoxyphenethyl)-21-methyl-3-(3-methylbutanoyl)-5,16,20,23-tetraoxo-2,3,4,4a,5,6,7,8,16,17,18,19,20,21,22,23-hexadecahydro-1H-naphtho[1,2-p]pyrazino[2,1-f][1]oxa[4,7,10,14]tetraazacycloheptadecine-18-carboxamide]	217 nM	213%
COCCC(=O)N1CCN2C(=O)[C@H](CC(C)C)N(C)C(=O)C[C@@H](C(=O)NCCc3cccc(OC)c3)NC(=O)c3c(ccc4ccccc34)OC[C@@H](Cc3ccccc3)NC(=O)[C@H]2C1 [Example 752, (4aR,7R,18S,22S)-7-benzyl-22-isobutyl-N-(3-methoxyphenethyl)-3-(3-methoxypropanoyl)-21-methyl-5,16,20,23-tetraoxo-2,3,4,4a,5,6,7,8,16,17,18,19,20,21,22,23-hexadecahydro-1H-naphtho[1,2-p]pyrazino[2,1-f][1]oxa[4,7,10,14]tetraazacycloheptadecine-18-carboxamide]	706 nM	200%
COc1cccc(CCNC(=O)[C@@H]2CC(=O)N(C)[C@@H](CC(C)C)C(=O)N3CCN(C(=O)c4cnccn4)C[C@@H]3C(=O)N[C@H](Cc3ccccc3)COc3ccc4ccccc4c3C(=O)N2)c1 [Example 753, (4aR,7R,18S,22S)-7-benzyl-22-isobutyl-N-(3-methoxyphenethyl)-21-methyl-5,16,20,23-tetraoxo-3-(pyrazine-2-carbonyl)-2,3,4,4a,5,6,7,8,16,17,18,19,20,21,22,23-hexadecahydro-1H-naphtho[1,2-p]pyrazino[2,1-f][1]oxa[4,7,10,14]tetraazacycloheptadecine-18-carboxamide]	430 nM	264%
